Measured values reported in PubChem BioAssay AID1963958 (Molecular Pharmacology Branch, DTP, NCI, 2024).
pIC50: −log10 of the molar value.

Test system: MDA-MB-231 multicell spheroids, viability
Assay: Anticancer human tumor MDA-MB-231 cell line growth inhibition [PI3K];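 also: spheroids exposed to agents for seven days before reading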;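 as to viability, T/C: percent of vehicle control luminescence with DMSO treated spheroids as 100%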
Details: for pIC50: curve of first compound; for viability, T/C: stronger effect = lower value
From the text: Combinatorial screen of targeted agents with the PI3K inhibitors inavolisib, alpelisib, duvelisib, and copanlisib in multi-cell type tumor spheroids
A high-throughput screen of multi-cell type tumor spheroids was designed to identify active combinations of targeted small molecules and PI3K pathway inhibitors. Complex spheroids include a stromal component modeled by human endothelial cells (HUVEC) and fibroblasts modeled by human mesenchymal stem cells (MSCs). The concentration ranges selected for each drug and investigational agent were based upon clinically achievable concentrations if the clinical Cmax of the agent was known.
Compounds. The drugs and investigational agents: inavolisib (NSC800729), alpelisib (NSC765974), duvelisib (NSC772469), copanlisib (NSC816437), ipatasertib (NSC767898), afuresertib (NSC778305), talazoparib (NSC767125), sapanisertib (NSC764658), selumetinib (NSC741078), tovorafenib (DAY101, NSC766906), vemurafenib (NSC761431), ravoxertinib (NSC781343), sotorasib (NSC818433), MRTX1133 (NSC 836407), abemaciclib (NSC 768073), palbociclib (NSC758247), venetoclax (NSC 766270), SY5609 (NSC837396), enzalutamide (NSC755605), and darolutamide (NSC825331), were obtained from the National Cancer Institute (NCI) Developmental Therapeutics Program Chemical Repository. The FDA-approved anticancer drug set is available from the NCI Developmental Therapeutics Program. […] The stock solutions were prepared in dimethyl sulfoxide (DMSO, Sigma-Aldrich, St. Louis, MO, cat. D2650) at 800-fold the tested concentration and stored at -70 degrees C prior to their use. All drugs and investigational agents were tested over a range starting from a high concentration at or near the clinical Cmax and decreasing in half-log increments. If the clinical Cmax for an agent had not been determined, the highest concentration tested was 10 microM.
Cell Culture. All cells were maintained in an incubator at 37 degrees C and 5% CO2 with 95% humidity. The PDC lines were cultured according to standard operating procedures established by the NCI PDMR (https://pdmr.cancer.gov/sops/default.htm). All PDCs were thawed and cultured in Matrigel-coated flasks prepared with a working solution of 1X Ham's F-12 nutrient mix, without supplementation (Invitrogen, Waltham, MA, cat. 11765054), 100 U/mL penicillin-streptomycin (Invitrogen, cat. 15140122), and 2.5% Matrigel (Corning Inc., Corning, NY, cat. 354248) for the first three passages. The 354836-022-R-J1-PDC, 475296-252-R-J1-PDC, and 997726-040-R-J2-PDC lines were cultured in 6A media, which includes advanced DMEM/F-12 (Thermo Fisher Scientific, cat. 12634028), 10 mM HEPES (Thermo Fisher Scientific, cat. 15630080), 1X GlutaMAX supplement (Thermo Fisher Scientific, cat. 35050061), 0.1 mg/mL primocin (InvivoGen, San Diego, CA, cat. ant-pm-2), 10% defined fetal bovine serum, heat inactivated (HyClone Laboratories Inc., Logan, UT, cat. SH30070.03HI), 50% L-WRN conditioned media (ATCC, cat. CRL-3276), 1.25 mM N-Acetyl-L-cysteine (Sigma-Aldrich, cat. A9165), 10 mM nicotinamide (Sigma-Aldrich, cat. N0636), 1X B-27 supplement (Thermo Fisher Scientific, cat. 17504044), 1X N-2 supplement (Thermo Fisher Scientific, cat. 17502048), and 10 microM Y-27632 dihydrochloride (Tocris Bioscience, Bristol, United Kingdom, cat. 1254). The 624824-186-R-J2-PDC line was cultured in 6C/Colon 1B media, which includes all 6A media components plus 50 ng/mL human EGF recombinant protein (Thermo Fisher Scientific, cat. PHG0311). […]

[1] = second compound 0.00316 µM, first compound 0.0316 µM
[2] = second compound 0.00316 µM, first compound 0.1 µM
[3] = second compound 0.01 µM, first compound 0.0316 µM
[4] = second compound 0.01 µM, first compound 0.1 µM
[5] = second compound 0.0316 µM, first compound 0.0316 µM
[6] = second compound 0.0316 µM, first compound 0.1 µM
[7] = second compound 0.1 µM, first compound 0.0316 µM
[8] = second compound 0.1 µM, first compound 0.1 µM
[9] = second compound 0.316 µM, first compound 0.0316 µM
[10] = second compound 0.316 µM, first compound 0.1 µM
[11] = second compound 1 µM, first compound 0.0316 µM
[12] = second compound 1 µM, first compound 0.1 µM

## CC(=O)c1c(C)c2cnc(Nc3ccc(N4CCNCC4)cn3)nc2n(C2CCCC2)c1=O + CC(Nc1ccc2c(c1)OCCn1cc(N3C(=O)OCC3C(F)F)nc1-2)C(N)=O
Second compound 0.00316 µM
  pIC50: 7.13
Second compound 0.01 µM
  pIC50: 7.22
Second compound 0.0316 µM
  pIC50: 7.46
Second compound 0.1 µM
  pIC50: 7.81
Second compound 0.316 µM
  pIC50: 8.00
Second compound 1 µM
  pIC50: 8.34
Second compound 0.00316 µM, first compound 0.000316 µM
  viability, T/C: 108%
Second compound 0.00316 µM, first compound 0.001 µM
  viability, T/C: 91.5%
Second compound 0.00316 µM, first compound 0.00316 µM
  viability, T/C: 98.1%
Second compound 0.00316 µM, first compound 0.01 µM
  viability, T/C: 90.2%
[1]
  viability, T/C: 67.4%
[2]
  viability, T/C: 43.5%
Second compound 0.01 µM, first compound 0.000316 µM
  viability, T/C: 94.1%
Second compound 0.01 µM, first compound 0.001 µM
  viability, T/C: 92.6%
Second compound 0.01 µM, first compound 0.00316 µM
  viability, T/C: 95.7%
Second compound 0.01 µM, first compound 0.01 µM
  viability, T/C: 72.1%
[3]
  viability, T/C: 67%
[4]
  viability, T/C: 38.7%
Second compound 0.0316 µM, first compound 0.000316 µM
  viability, T/C: 80.1%
Second compound 0.0316 µM, first compound 0.001 µM
  viability, T/C: 75.7%
Second compound 0.0316 µM, first compound 0.00316 µM
  viability, T/C: 79.9%
Second compound 0.0316 µM, first compound 0.01 µM
  viability, T/C: 69%
[5]
  viability, T/C: 51.8%
[6]
  viability, T/C: 31.6%
Second compound 0.1 µM, first compound 0.000316 µM
  viability, T/C: 71.3%
Second compound 0.1 µM, first compound 0.001 µM
  viability, T/C: 65.7%
Second compound 0.1 µM, first compound 0.00316 µM
  viability, T/C: 65.1%
Second compound 0.1 µM, first compound 0.01 µM
  viability, T/C: 55.2%
[7]
  viability, T/C: 41.3%
[8]
  viability, T/C: 27.9%
Second compound 0.316 µM, first compound 0.000316 µM
  viability, T/C: 65.8%
Second compound 0.316 µM, first compound 0.001 µM
  viability, T/C: 64%
Second compound 0.316 µM, first compound 0.00316 µM
  viability, T/C: 61.3%
Second compound 0.316 µM, first compound 0.01 µM
  viability, T/C: 48.2%
[9]
  viability, T/C: 37.9%
[10]
  viability, T/C: 24.3%
Second compound 1 µM, first compound 0.000316 µM
  viability, T/C: 60.9%
Second compound 1 µM, first compound 0.001 µM
  viability, T/C: 55.1%
Second compound 1 µM, first compound 0.00316 µM
  viability, T/C: 51.9%
Second compound 1 µM, first compound 0.01 µM
  viability, T/C: 46.2%
[11]
  viability, T/C: 35.9%
[12]
  viability, T/C: 23.4%

## CCCS(=O)(=O)Nc1ccc(F)c(C(=O)c2c[nH]c3ncc(-c4ccc(Cl)cc4)cc23)c1F + CC(Nc1ccc2c(c1)OCCn1cc(N3C(=O)OCC3C(F)F)nc1-2)C(N)=O
Second compound 0.00316 µM
  pIC50: 5.35
Second compound 0.01 µM
  pIC50: 5.44
Second compound 0.0316 µM
  pIC50: 5.61
Second compound 0.1 µM
  pIC50: 5.73
Second compound 0.316 µM
  pIC50: 5.91
Second compound 1 µM
  pIC50: 5.96
[1]
  viability, T/C: 98.5%
[2]
  viability, T/C: 94.9%
Second compound 0.00316 µM, first compound 0.316 µM
  viability, T/C: 100%
Second compound 0.00316 µM, first compound 1 µM
  viability, T/C: 86.9%
Second compound 0.00316 µM, first compound 3.16 µM
  viability, T/C: 59.2%
Second compound 0.00316 µM, first compound 10 µM
  viability, T/C: 29.9%
[3]
  viability, T/C: 98.3%
[4]
  viability, T/C: 102%
Second compound 0.01 µM, first compound 0.316 µM
  viability, T/C: 93.3%
Second compound 0.01 µM, first compound 1 µM
  viability, T/C: 80.3%
Second compound 0.01 µM, first compound 3.16 µM
  viability, T/C: 52.8%
Second compound 0.01 µM, first compound 10 µM
  viability, T/C: 29.5%
[5]
  viability, T/C: 80.5%
[6]
  viability, T/C: 81.6%
Second compound 0.0316 µM, first compound 0.316 µM
  viability, T/C: 79.9%
Second compound 0.0316 µM, first compound 1 µM
  viability, T/C: 66.3%
Second compound 0.0316 µM, first compound 3.16 µM
  viability, T/C: 45.5%
Second compound 0.0316 µM, first compound 10 µM
  viability, T/C: 26.6%
[7]
  viability, T/C: 80.8%
[8]
  viability, T/C: 71.4%
Second compound 0.1 µM, first compound 0.316 µM
  viability, T/C: 68.6%
Second compound 0.1 µM, first compound 1 µM
  viability, T/C: 61.4%
Second compound 0.1 µM, first compound 3.16 µM
  viability, T/C: 41%
Second compound 0.1 µM, first compound 10 µM
  viability, T/C: 23.9%
[9]
  viability, T/C: 72%
[10]
  viability, T/C: 68.4%
Second compound 0.316 µM, first compound 0.316 µM
  viability, T/C: 61.7%
Second compound 0.316 µM, first compound 1 µM
  viability, T/C: 54.7%
Second compound 0.316 µM, first compound 3.16 µM
  viability, T/C: 36.7%
Second compound 0.316 µM, first compound 10 µM
  viability, T/C: 21.7%
[11]
  viability, T/C: 65.4%
[12]
  viability, T/C: 63.4%
Second compound 1 µM, first compound 0.316 µM
  viability, T/C: 59.8%
Second compound 1 µM, first compound 1 µM
  viability, T/C: 51%
Second compound 1 µM, first compound 3.16 µM
  viability, T/C: 36.9%
Second compound 1 µM, first compound 10 µM
  viability, T/C: 21.4%
